Changes are numbered by the printed parent chain. pIC50: −log10 of the molar value.

This is an account of results in patent US20260217660A1, “INHIBITORS OF ACTIVIN RECEPTOR TYPE I (ACVRI) AND ACTIVIN RECEPTOR LIKE TYPE I (ACVRLI), AND METHODS USING SAME” (Baylor College of Medicine, priority 2023, published 2026).

For data set [1], the target named is T1, ACVR1^WT (Homo sapiens, UniProt Q04771).
T1 sequence (Q04771 21-509): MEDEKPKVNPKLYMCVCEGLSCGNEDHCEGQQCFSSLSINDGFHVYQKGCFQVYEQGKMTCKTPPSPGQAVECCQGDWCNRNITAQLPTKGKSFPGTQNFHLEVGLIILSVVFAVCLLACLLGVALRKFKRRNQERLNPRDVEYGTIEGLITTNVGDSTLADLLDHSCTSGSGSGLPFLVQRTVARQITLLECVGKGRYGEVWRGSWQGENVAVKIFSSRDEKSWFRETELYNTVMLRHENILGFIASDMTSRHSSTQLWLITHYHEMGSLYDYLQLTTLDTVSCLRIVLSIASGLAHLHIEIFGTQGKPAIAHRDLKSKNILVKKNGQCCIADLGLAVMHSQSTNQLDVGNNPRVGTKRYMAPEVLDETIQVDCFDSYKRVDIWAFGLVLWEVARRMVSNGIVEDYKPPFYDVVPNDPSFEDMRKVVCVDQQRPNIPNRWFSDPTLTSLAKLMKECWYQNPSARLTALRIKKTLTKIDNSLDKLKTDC
The experiment in a line: Promega NanoBRET live-cell target engagement, ACVR1. In kind it is cell-based. The conditions noted are these: in cellulo; NI = No inhibition at 40 μM. From the text: (§1) The Promega NanoBRET target engagement system involves cell-based competitive displacement of a fluorescent NanoBRET tracer bound reversibly to a NanoLuc fusion protein. Test compounds displace the tracer dependent on their affinity for the target and reduce […] the NanoBRET signal. […]
(In BRET a luciferase serves as donor, and the signal depends on an acceptor being close.)

Data set [2] addresses T2, ACVR1^R206H (Homo sapiens, UniProt Q04771, R206H).
T2 sequence (Q04771 21-509 R206H): T1 sequence (Q04771 21-509) with R186H
The experiment in a line: Promega NanoBRET live-cell target engagement, ACVR1 (R206H). The conditions noted are these: in cellulo; NI = No inhibition at 40 μM. Format: cell-based.
From the text: as §1

Data set [3] is described as follows: Metabolic stability in mouse liver microsomes. In kind it is in vitro ADME. The conditions noted are these: some cells add hours in brackets. From the text:
(§2) Exemplary compounds of the present disclosure have been evaluated for metabolic stability in mouse and human liver microsomes.
Background: Liver microsomes are vesicles of endoplasmic reticulum, rich in cytochrome P450 enzymes.

Data set [4] in a line: Metabolic stability in human liver microsomes. Format: in vitro ADME. The note with it: some cells add hours in brackets.
From the text: as §2

Data set [5] concerns the target T3, ACVR1 (Homo sapiens, UniProt Q04771).
T3 construct: purchased ThermoFisher
T3 sequence (Q04771 21-509): T1 sequence (Q04771 21-509)
The experiment in a line: ThermoFisher (Lantha) kinase assay, inhibition of ACVR1. In kind it is biochemical. The conditions noted are these: ThermoFisher Assay, in vitro.

Data set [6] concerns the target T4, ACVRL1 (Homo sapiens, UniProt P37023).
T4 construct: purchased ThermoFisher
The experiment in a line: ThermoFisher (Lantha) kinase assay, inhibition of ACVRL1. In kind it is biochemical. The conditions noted are these: in vitro, NA = not active at 1 μM.

T4 sequence (P37023 22-503): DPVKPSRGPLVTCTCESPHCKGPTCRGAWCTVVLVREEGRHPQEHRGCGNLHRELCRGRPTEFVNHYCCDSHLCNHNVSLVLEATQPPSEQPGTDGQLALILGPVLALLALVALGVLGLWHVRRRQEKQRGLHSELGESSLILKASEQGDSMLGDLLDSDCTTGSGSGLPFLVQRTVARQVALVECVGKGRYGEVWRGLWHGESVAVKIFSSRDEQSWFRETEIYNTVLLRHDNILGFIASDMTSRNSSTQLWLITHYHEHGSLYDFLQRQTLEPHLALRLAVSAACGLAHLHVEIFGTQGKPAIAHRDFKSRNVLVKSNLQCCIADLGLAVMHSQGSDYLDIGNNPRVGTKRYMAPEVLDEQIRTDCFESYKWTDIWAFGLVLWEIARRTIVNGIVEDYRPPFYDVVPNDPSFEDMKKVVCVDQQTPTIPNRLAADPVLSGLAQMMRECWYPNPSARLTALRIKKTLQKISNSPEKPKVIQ

`COc1cc(-c2nc3ccc(C(=O)NCCN4CCN(C5CCCCC5)CC4)cc3n2C2CCC2)cc(OC)c1OC` [CDD-2794, 1-cyclobutyl-N-(2-(4-cyclohexylpiperazin-1-yl)ethyl)-2-(3,4,5-trimethoxyphenyl)-1H-benzo[d]imidazole-6-carboxamide]: the pIC50 (as a rule, the IC50 on a negative log10 scale, so that one unit is a factor of ten) is 5.68 in data set [1] and 5.50 in data set [2].

As for `COc1cc(-c2nc3ccc(C(=O)NCCC(=O)N4CCN(c5cccc(C)c5C)CC4)cc3n2C2CCC2)cc(OC)c1OC` [CDD-2467, 1-cyclobutyl-N-(3-(4-(2,3-dimethylphenyl)piperazin-1-yl)-3-oxopropyl)-2-(3,4,5-trimethoxyphenyl)-1H-benzo[d]imidazole-6-carboxamide], the “Metabolism MLM” value in data set [3] came to 9.3 min. Also, the “Metabolism HLM” value in data set [4] worked out at 13.6 min.

With “1-cyclopropyl-N-(3-(4-(2,3-dimethylphenyl)piperazin-1-yl)propyl)-2-(3,4,5-trimethoxyphenyl)-1H-benzo[d]imidazole-6-carboxamide [CDD-2468]”, the pIC50 was 6.87 in data set [5] and 5.39 in data set [6].

For `COc1ccc(-c2cccc(-c3nc4ccc(C(=O)NCCCN(C)C)cc4n3C3CCC3)n2)cc1` [CDD-2620, 1-cyclobutyl-N-(3-(dimethylamino)propyl)-2-(6-(4-methoxyphenyl)pyridin-2-yl)-1H-benzo[d]imidazole-6-carboxamide], in data set [6], the negative logarithm of the IC50 (pIC50) was < 6.00.

As to `CN(C)CCCNC(=O)c1ccc2nc(-c3cncc4ccccc34)n(C3CCC3)c2c1` [CDD-2623, 1-cyclobutyl-N-(3-(dimethylamino)propyl)-2-(isoquinolin-4-yl)-1H-benzo[d]imidazole-6-carboxamide], the pIC50 in data set [6] was < 6.00.

As to `COc1cc(-c2nc3ccc(C(=O)NCC4(O)CCN(Cc5ccccc5)CC4)cc3n2C2CCC2)cc(OC)c1OC` [CDD-2795, N-((1-benzyl-4-hydroxypiperidin-4-yl)methyl)-1-cyclobutyl-2-(3,4,5-trimethoxyphenyl)-1H-benzo[d]imidazole-6-carboxamide], the results for the negative-log IC50 (pIC50) in data set [1] and in data set [2] were 6.41 and 6.34, respectively.

Turning to `COc1cc(-c2nc3ccc(C(=O)NCCCN4CCN(c5ccccc5)CC4)cc3[nH]2)cc(OC)c1OC` [CDD-2236, N-(3-(4-phenylpiperazin-1-yl)propyl)-2-(3,4,5-trimethoxyphenyl)-1H-benzo[d]imidazole-6-carboxamide], the pIC50 in data set [5] was 7.18; in data set [6], 6.27.

Consider `COc1cc(OC)cc(-c2nc3ccc(C(=O)NCCCN4CCN(c5cccc(C)c5C)CC4)cc3n2C2CCC2)c1` [CDD-2469, 1-cyclobutyl-2-(3,5-dimethoxyphenyl)-N-(3-(4-(2,3-dimethylphenyl)piperazin-1-yl)propyl)-1H-benzo[d]imidazole-6-carboxamide], for which the negative logarithm of the IC50 (pIC50) was 5.33 in data set [1] and 5.35 in data set [2].

For `CNC(=O)[C@H]1C[C@H](n2c(-c3cc(F)cc(OC)c3)nc3ccc(C(=O)NCCCN(C)C)cc32)C1` [CDD-2682, N-(3-(dimethylamino)propyl)-2-(3-fluoro-5-methoxyphenyl)-1-((1r,3r)-3-(methylcarbamoyl)cyclobutyl)-1H-benzo[d]imidazole-6-carboxamide], the pIC50 in data set [5] was 7.06; in data set [6] it was 6.39.

Regarding `CN(C)CCCNC(=O)c1ccc2nc(-c3cccc(-c4ccccc4)c3)n(C3CCC3)c2c1` [CDD-2621, 2-([1,1′-biphenyl]-3-yl)-1-cyclobutyl-N-(3-(dimethylamino)propyl)-1H-benzo[d]imidazole-6-carboxamide], in data set [6], the negative-log IC50 (pIC50) was < 6.00.

As to `CNC(=O)[C@H]1CC[C@H](n2c(-c3cc(OC)c(OC)c(OC)c3)nc3ccc(C(=O)NCCCN4CCN(c5ccccc5)CC4)cc32)C1` [CDD-2206, 1-((1S,3S)-3-(methylcarbamoyl)cyclopentyl)-N-(3-(4-phenylpiperazin-1-yl)propyl)-2-(3,4,5-trimethoxyphenyl)-1H-benzo[d]imidazole-6-carboxamide], the figures for the pIC50 in data set [5] and in data set [6] were 8.28 and 7.57, respectively.

As for `CNC(=O)[C@H]1C[C@H](n2c(-c3ccc(F)c(OC)c3)nc3ccc(C(=O)NCCCN(C)C)cc32)C1` [CDD-2683, N-(3-(dimethylamino)propyl)-2-(4-fluoro-3-methoxyphenyl)-1-((1r,3r)-3-(methylcarbamoyl)cyclobutyl)-1H-benzo[d]imidazole-6-carboxamide], the pIC50 in data set [5] was 7.11; in data set [6], 6.72.

Take `CNC(=O)[C@H]1C[C@H](n2c(-c3ccc(OC)c(OC)c3)nc3ccc(C(=O)NCCCN(C)C)cc32)C1` [CDD-2685, 2-(3,4-dimethoxyphenyl)-N-(3-(dimethylamino)propyl)-1-((1r,3r)-3-(methylcarbamoyl)cyclobutyl)-1H-benzo[d]imidazole-6-carboxamide]: the figures for the pIC50 in data set [5] and in data set [6] were 6.92 and 6.41, respectively.

As for `CNC(=O)[C@H]1CC[C@H](n2c(-c3cc(OC)c(OC)c(OC)c3)nc3ccc(C(=O)NC4COc5ccc(Cl)cc54)cc32)C1` (stereo partly drawn) [CDD-2233, N-(5-chloro-2,3-dihydrobenzofuran-3-yl)-1-((1S,3S)-3-(methylcarbamoyl)cyclopentyl)-2-(3,4,5-trimethoxyphenyl)-1H-benzo[d]imidazole-6-carboxamide], the pIC50 in data set [5] and in data set [6] was 7.70 throughout.

Turning to `CNC(=O)[C@@H]1CC[C@@H](n2c(-c3cc(OC)c(OC)c(OC)c3)nc3ccc(C(=O)NCCCN4CCN(c5ccccc5)CC4)cc32)C1` [CDD-2622, 1-((1R,3R)-3-(methylcarbamoyl)cyclopentyl)-N-(3-(4-phenylpiperazin-1-yl)propyl)-2-(3,4,5-trimethoxyphenyl)-1H-benzo[d]imidazole-6-carboxamide], the negative logarithm of the IC50 (pIC50) is 8.24 in data set [5] and 7.94 in data set [6].

With `COc1cc(-c2nc3ccc(C(=O)NCCCN4CCN(C)C(c5ccccc5)C4)cc3n2C2CCC2)cc(OC)c1OC` (stereo not shown) [CDD-2793, 1-cyclobutyl-N-(3-(4-methyl-3-phenylpiperazin-1-yl)propyl)-2-(3,4,5-trimethoxyphenyl)-1H-benzo[d]imidazole-6-carboxamide], the pIC50 in data set [1] is 5.57; in data set [2], 5.37.

In the case of `CNC(=O)[C@H]1C[C@H](n2c(-c3cc(OC)c(OC)c(OC)c3)nc3ccc(C(=O)NCCCN4CCN(c5ccccc5)CC4)cc32)C1` [CDD-2235, 1-((1r,3r)-3-(methylcarbamoyl)cyclobutyl)-N-(3-(4-phenylpiperazin-1-yl)propyl)-2-(3,4,5-trimethoxyphenyl)-1H-benzo[d]imidazole-6-carboxamide], the “Metabolism MLM” value in data set [3] turned out to be 5.7 min. Moreover, in data set [4], the “Metabolism HLM” value was 9.7 min.

For `CNC(=O)[C@H]1CC[C@H](n2c(-c3cc(I)c(OC)c(OC)c3)nc3ccc(C(=O)NCCCN4CCN(c5ccccc5)CC4)cc32)C1` [CDD-2205, 2-(3-iodo-4,5-dimethoxyphenyl)-1-((1S,3S)-3-(methylcarbamoyl)cyclopentyl)-N-(3-(4-phenylpiperazin-1-yl)propyl)-1H-benzo[d]imidazole-6-carboxamide], the negative-log IC50 (pIC50) in data set [5] is 8.43; in data set [6] it was 7.83.

Regarding `CNC(=O)[C@H]1C[C@H](n2c(-c3cccc(OC)c3)nc3ccc(C(=O)NCCCN(C)C)cc32)C1` [CDD-2684, N-(3-(dimethylamino)propyl)-2-(3-methoxyphenyl)-1-((1r,3r)-3-(methylcarbamoyl)cyclobutyl)-1H-benzo[d]imidazole-6-carboxamide], the pIC50 in data set [5] was 7.08; in data set [6], 6.71.

Take `CNC(=O)[C@H]1C[C@H](n2c(-c3cc(OC)c(OC)c(OC)c3)nc3ccc(C(=O)NCCCN4CCN(c5cccc(C)c5C)CC4)cc32)C1` [CDD-2341, N-(3-(4-(2,3-dimethylphenyl)piperazin-1-yl)propyl)-1-((1r,3r)-3-(methylcarbamoyl)cyclobutyl)-2-(3,4,5-trimethoxyphenyl)-1H-benzo[d]imidazole-6-carboxamide]: the figures for the pIC50 in data set [5] and in data set [6] were 8.44 and 7.91, respectively.
